Laboratory results from US8822530B2, “Sulfur derivatives as chemokine receptor modulators” (Allergan, Inc., priority 2010, dated 2014).
pIC50: −log10 of the molar value.

Biological target: T1, CCR2 receptor (Homo sapiens, UniProt P41597)
T1 construct: expressed in transfected cells
Test: Calcium activity assay on FLIPR Tetra in HEK-Gqi5 cells stably expressing CCR2
Format: cell-based
Method: HEK-Gqi5 cells stably expressing CCR2 were cultured in DMEM high glucose, 10% FBS, 1% PSA, 400 μg/ml geneticin and 50 μg/ml hygromycin. Appropriate positive control chemokines (MCP-1, MIP1A or RANTES) was used as the positive control agonist for screening compound-induced calcium activity assayed on the FLIPR^Tetra. The drug plates were prepared in 384-well microplates using the EP3 and the MultiPROBE robotic liquid handling systems. Compounds were synthesized and tested for CCR2 activity.

T1 sequence (P41597 whole entry): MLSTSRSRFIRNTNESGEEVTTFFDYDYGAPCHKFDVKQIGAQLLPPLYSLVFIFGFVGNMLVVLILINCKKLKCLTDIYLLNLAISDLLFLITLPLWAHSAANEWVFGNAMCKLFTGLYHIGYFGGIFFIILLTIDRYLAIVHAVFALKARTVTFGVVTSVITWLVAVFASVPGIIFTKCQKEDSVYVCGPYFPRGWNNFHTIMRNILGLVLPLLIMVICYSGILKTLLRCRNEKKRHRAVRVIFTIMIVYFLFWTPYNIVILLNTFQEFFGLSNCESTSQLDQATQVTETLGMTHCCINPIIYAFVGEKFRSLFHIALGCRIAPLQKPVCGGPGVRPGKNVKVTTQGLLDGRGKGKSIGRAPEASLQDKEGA

Row | SMILES | CCR2 % ANTAGONISM [%] | pIC50
1 | O=C(NCCN1CCCC1)c1cccc(CS(=O)(=O)c2ccc(Cl)cc2NS(=O)(=O)c2ccc(Cl)c(C(F)(F)F)c2)c1 | 110 | 6.09
2 | CN(C)C(=O)c1ccccc1CSc1ccc(Cl)cc1NS(=O)(=O)c1ccc(Cl)c(C(F)(F)F)c1 [2-({[4-chloro-2-({[4-chloro-3-(trifluoromethyl)phenyl]sulfonyl}amino)phenyl]sulfanyl}methyl)-N,N-dimethylbenzamide] | 71 | 6.77
3 | CCNC(=O)c1ccccc1CSc1ccc(Cl)cc1NS(=O)(=O)c1ccc(Cl)c(C(F)(F)F)c1 [2-({[4-chloro-2-({[4-chloro-3-(trifluoromethyl)phenyl]sulfonyl}amino)phenyl]sulfanyl}methyl)-N-ethylbenzamide] | 92 | 6.83
4 | NC(=O)c1ccccc1CSc1ccc(Cl)cc1NS(=O)(=O)c1ccc(Cl)c(C(F)(F)F)c1 [2-({[4-chloro-2-({[4-chloro-3-(trifluoromethyl)phenyl]sulfonyl}amino)phenyl]sulfanyl}methyl)benzamide] | 88 | 6.78
5 | O=C(O)c1ccccc1CSc1ccc(Cl)cc1NS(=O)(=O)c1ccc(Cl)c(C(F)(F)F)c1 [2-({[4-chloro-2-({[4-chloro-3-(trifluoromethyl)phenyl]sulfonyl}amino)phenyl]sulfanyl}methyl)benzoic acid] | 99 | 7.10
6 | O=C(O)c1ccccc1C[S+]([O-])c1ccc(Cl)cc1NS(=O)(=O)c1ccc(Cl)c(C(F)(F)F)c1 (centres unmarked) [2-({[4-chloro-2-({[4-chloro-3-(trifluoromethyl)phenyl]sulfonyl}amino)phenyl]sulfinyl}methyl)benzoic acid] | 99 | 6.07
7 | O=C(O)c1ccccc1CS(=O)(=O)c1ccc(Cl)cc1NS(=O)(=O)c1ccc(Cl)c(C(F)(F)F)c1 [2-({[4-chloro-2-({[4-chloro-3-(trifluoromethyl)phenyl]sulfonyl}amino)phenyl]sulfonyl}methyl)benzoic acid] | 105 | –
8 | O=C(O)c1ccccc1CSc1ccc(Cl)cc1NS(=O)(=O)c1cc2ccccc2o1 [2-[({2-[(1-benzofuran-2-ylsulfonyl)amino]-4-chlorophenyl}sulfanyl)methyl]benzoic acid] | 101 | 8.15
9 | O=C(O)c1ccccc1C[S+]([O-])c1ccc(Cl)cc1NS(=O)(=O)c1cc2ccccc2o1 (centres unmarked) [2-[({2-[(1-benzofuran-2-ylsulfonyl)amino]-4-chlorophenyl}sulfinyl)methyl]benzoic acid] | 98 | 6.09
10 | O=C(O)c1ccccc1CS(=O)(=O)c1ccc(Cl)cc1NS(=O)(=O)c1cc2ccccc2o1 [2-[({2-[(1-benzofuran-2-ylsulfonyl)amino]-4-chlorophenyl}sulfonyl)methyl]benzoic acid] | 96 | –
11 | O=C(O)c1ccccc1CSc1ccc(F)cc1NS(=O)(=O)c1cc2ccccc2o1 [2-[({2-[(1-benzofuran-2-ylsulfonyl)amino]-4-fluorophenyl}sulfanyl)methyl]benzoic acid] | 99 | 7.96
12 | O=C(O)c1ccccc1C[S+]([O-])c1ccc(F)cc1NS(=O)(=O)c1cc2ccccc2o1 (centres unmarked) [2-[({2-[(1-benzofuran-2-ylsulfonyl)amino]-4-fluorophenyl}sulfinyl)methyl]benzoic acid] | 92 | 5.73
13 | O=C(O)c1ccccc1CS(=O)(=O)c1ccc(F)cc1NS(=O)(=O)c1cc2ccccc2o1 [2-[({2-[(1-benzofuran-2-ylsulfonyl)amino]-4-fluorophenyl}sulfonyl)methyl]benzoic acid] | 89 | 5.61
14 | O=C(O)CCSc1ccc(Cl)cc1NS(=O)(=O)c1cc2ccccc2o1 [3-({2-[(1-benzofuran-2-ylsulfonyl)amino]-4-chlorophenyl}sulfanyl)propanoic acid] | 99 | 7.34
15 | O=C(NCCN1CCCC1)c1cccc(CSc2ccc(Cl)cc2NS(=O)(=O)c2ccc(Cl)c(C(F)(F)F)c2)c1 [3-({[4-chloro-2-({[4-chloro-3-(trifluoromethyl)phenyl]sulfonyl}amino)phenyl]sulfanyl}methyl)-N-[2-(pyrrolidin-1-yl)ethyl]benzamide] | 97 | 5.66
16 | O=C(O)c1cccc(CSc2ccc(Cl)cc2NS(=O)(=O)c2ccc(Cl)c(C(F)(F)F)c2)c1 [3-({[4-chloro-2-({[4-chloro-3-(trifluoromethyl)phenyl]sulfonyl}amino)phenyl]sulfanyl}methyl)benzoic acid] | 102 | 7.25
17 | O=C(NCCN1CCCC1)c1cccc(C[S+]([O-])c2ccc(Cl)cc2NS(=O)(=O)c2ccc(Cl)c(C(F)(F)F)c2)c1 (centres unmarked) [3-({[4-chloro-2-({[4-chloro-3-(trifluoromethyl)phenyl]sulfonyl}amino)phenyl]sulfinyl}methyl)-N-[2-(pyrrolidin-1-yl)ethyl]benzamide] | 105 | 6.04
18 | O=C(O)c1cccc(C[S+]([O-])c2ccc(Cl)cc2NS(=O)(=O)c2ccc(Cl)c(C(F)(F)F)c2)c1 (centres unmarked) [3-({[4-chloro-2-({[4-chloro-3-(trifluoromethyl)phenyl]sulfonyl}amino)phenyl]sulfinyl}methyl)benzoic acid] | 89 | –
19 | O=C(NCC[N+]1([O-])CCCC1)c1cccc(CS(=O)(=O)c2ccc(Cl)cc2NS(=O)(=O)c2ccc(Cl)c(C(F)(F)F)c2)c1 [3-({[4-chloro-2-({[4-chloro-3-(trifluoromethyl)phenyl]sulfonyl}amino)phenyl]sulfonyl}methyl)-N-[2-(1-oxidopyrrolidin-1-yl)ethyl]benzamide] | 51 | –
20 | O=C(O)c1cccc(CS(=O)(=O)c2ccc(Cl)cc2NS(=O)(=O)c2ccc(Cl)c(C(F)(F)F)c2)c1 [3-({[4-chloro-2-({[4-chloro-3-(trifluoromethyl)phenyl]sulfonyl}amino)phenyl]sulfonyl}methyl)benzoic acid] | 101 | 5.80
21 | CCN(C)C(=O)CCSc1ccc(Cl)cc1NS(=O)(=O)c1ccc(Cl)cc1F [3-[(4-chloro-2-{[(4-chloro-2-fluorophenyl)sulfonyl]amino}phenyl)sulfanyl]-N-ethyl-N-methylpropanamide] | 49 | –
22 | O=C(O)CCSc1ccc(Cl)cc1NS(=O)(=O)c1ccc(Cl)cc1F [3-[(4-chloro-2-{[(4-chloro-2-fluorophenyl)sulfonyl]amino}phenyl)sulfanyl]propanoic acid] | 102 | 6.89
23 | CCN(C)C(=O)CC[S+]([O-])c1ccc(Cl)cc1NS(=O)(=O)c1ccc(Cl)cc1F (centres unmarked) [3-[(4-chloro-2-{[(4-chloro-2-fluorophenyl)sulfonyl]amino}phenyl)sulfinyl]-N-ethyl-N-methylpropanamide] | 89 | 5.12
